In patent publication US20130040291A1, “Detection and Quantification of Cellular Stress Response Resolution Pathway Expression and Functionality and the Effects of Agents or Conditions Thereupon” (priority 2011, published 2013):

Assays:
CDNR4 cells [1] = assay: Observation of cells during the adaptive response period after the initial exposure; assay type: cell-based, murine; conditions: ENU 20 micrograms/ml 1 hour; resolved after 10 to 12 days
Description: (§1) The murine mammary epithelial cells designated CDNR4 were grown in their preferred growth medium (42% DMEM, 42% Hams F-12, 12% FBS, 1% 100×L-glutamine, 1% pen-strep, 0.5% to 1% bovine pituitary extract) until approximately 6 million cells were available. Cells were removed from the expansion flasks, counted, and replated at a rate of 500,000 cells per […] flask in growth medium. The flasks were assigned randomly to one of two groups: a vehicle-alone exposure (control group); an ENU-exposure (treated) group. For flasks of ENU-exposed cells, ENT was added to the growth medium to achieve a final concentration of 20 micrograms per milliliter. For group 1 flasks, a volume of growth medium equal to the volume of ENU was added to the flasks. The cells were exposed to this solution for 1 hour at 37° C.; at the end of this time the solution was removed, the cells were washed with PBS at 37° C., and the cells were re-fed with fresh growth medium.
This drop in pH recurred within six to 12 hours after re-feeding the cells with fresh growth medium. To reduce this problem, all cells (vehicle-exposed and ENU-exposed) were re-fed every day with medium that was buffered with HEPES at a concentration of 25 millimolar. […] This process of increased cell death among ENU-exposed cells resolved after approximately 10 to 12 days. […]

CDNR4 cells [2] = assay type: cell-based, murine
Description: Following the cessation of the calibrated stress conditions exposure, the SR assay raw data is collected in the form of positive and negative wells (or cell growth sites) and in the form of viable or dead cell clones. The next steps of the assay involve expanding viable clones and determining their phenotypes. When the phenotype of interest being investigated in the SR assay is cell survival, the clones can be sub-classified using the testing listed in Table 6. This testing is performed as follows. Clones are removed from the tissue culture vessels in which they were placed before the start of the calibrated stress conditions exposure (using methods appropriate for the cell type), and subdivided into 4 different aliquots. Each aliquot is re-plated in an appropriate tissue culture vessel in medium containing the following. For one aliquot, the medium is growth medium (conditioned medium may be used) only; for a second aliquot the medium is supplemented with guanosine or folic acid at a concentration sufficient to enhance the survival and expansion of HPRT^− clones; for a third aliquot, the medium contains the same level of agent as used for the calibrated stress condition exposure, and the fourth aliquot is placed in HAT-medium containing an amount of aminopterin that is sufficient to induce growth arrest and/or cell death in Phen-HPRT^− cells of the cell type of interest (see above). Cell morphology (where informative for cell behavior and/or gene expression) and cell growth are monitored over the next 2, to 4 days to determine the response of the cells to these differing conditions. Cell clones can be subjected to additional testing as desired to evaluate further endpoints of interest and/or can be cryopreserved for future evaluations.
To subgroup Phen-ah clones as Phen-alt-rev or Phen-alt-irr, a representative group of these clones is tested further by subjecting the clones to repeated rounds of exposure to the calibrated stress conditions. Other stress inducing agents also may be used. Each exposure cycle is followed by a period of time to allow the cells to recover, and thus, to resolve the stress environment. After each exposure round, the percentage of cells that are resistant to the stress inducing agent or condition is recorded. […] The parental cell response that has been used in the examples below is defined as greater than 99% sensitivity to the calibrated stress conditions agent or condition, as evidenced by cell cycle arrest and/or cell death following exposure to the SR induction agent. Other stress response endpoints may be used and will depend upon the nature of the stress inducing agent used; these endpoints are incorporated herein.
as §1, with “For flasks of ENU-exposed cells, ENT was added to the growth medium to achieve a final concentration of 20 micrograms per milliliter.” left out
At the end of 2 weeks, the cells were removed from the flasks with trypsin/EDTA and passed through a 20 to 25 micron pore size sterile Nytran filter. The cell suspension was evaluated by light microscopy for evidence of large clumps, and was re-filtered if necessary using a new sterile Nytran filter of the same size to remove any apparent large clumps of cells. […]

[3] = ENU 2.0 micrograms/ml 1 hour (so in the source), 2-week expression period, 6-TG stress
[4] = ENU-exposed, average 6 out of 38 clones

Structure (SMILES): CCN(N=O)C(N)=O [ENU, ethylnitrosourea]
- cell death among ENU-exposed flasks during adaptive response period (CDNR4 cells [1]): slight non-significant increase in cell death
- CE / mutant frequency of Phen-HPRT^− clones (CDNR4 cells [2]; [3]): 160±40 ×10^−6
- CE of Phen-alt-irr clones (CDNR4 cells [2]; [3]): 690±170 ×10^−6
- CE of Phen-alt-rev clones (CDNR4 cells [2]; [3]): 180±130 ×10^−6
- CE of Phen-parental clones (CDNR4 cells [2]; [3]): 95±20 ×10^−6
- reduction in total pro-survival pathway function, ENU-exposed versus vehicle-exposed (CDNR4 cells [2]; ENU 20 micrograms/ml 1 hour): ~3 fold
- fCEs for all surviving cell clones (total pro-survival pathway function) (CDNR4 cells [2]; ENU 20 micrograms/ml 1 hour, 6-TG 30 micrograms/ml 4 days, 600 cells per well): 1210±380 ×10^−6
- surviving population with damage, Phen-alt-rev clones included (CDNR4 cells [2]; ENU-exposed): 92%
- average CE for Phen-Hprt- and Phen-alt clones, Phen-alt-rev clones included (CDNR4 cells [2]; ENU-exposed cells): 1100±350 ×10^−6
- combined average fCE of Phen-parental and Phen-alt-rev clones (CDNR4 cells [2]; ENU-exposed cells): 280±150 ×10^−6
- average fCE for Phen-Hprt^− clones and Phen-alt clones together (damage tolerance pathway function) (CDNR4 cells [2]; ENU-exposed cells, without Phen-alt-rev clones): 870±220 ×10^−6
- effect per unit dose of the calibrated stress conditions exposure upon CEs for Phen-parental clones (CDNR4 cells [2]; ENU-exposed cells, 95÷35 micrograms 6-TG): 2.7 CE/microgram 6-TG
- post-calibrated stress condition fCEs (CDNR4 cells [2]; ENU-exposed cells, SRID-10% of 6-TG (Example 5)): 95 ×10^−6
- surviving population with permanent genomic changes (CDNR4 cells [2]; ENU-exposed, Hprt mutations plus irreversible phenotypic alterations): 75%
- Phen-parental clones as share of the final surviving treated cell population (CDNR4 cells [2]; ENU-exposed, average 3 out of 38 clones): 9%
- surviving clones with evidence of DNA damage in the Hprt gene (CDNR4 cells [2]; [4]): 15%
- surviving clones with reversible phenotypic alterations (CDNR4 cells [2]; [4]): 17%
- surviving clones with irreversible phenotypic changes (Phen-alt-irr) (CDNR4 cells [2]; ENU-exposed, average 23 out of 38 clones): 60%
- total survival frequency (CDNR4 cells [2]; ENU-treated cells, calibrated stress conditions at SRID-70% to 80%): approximately 128 ×10^−6
- reduction in damage avoidance pathway function, Phen-parental clones only (CDNR4 cells [2]; treated versus control cells): approximately 25 fold
- reduction in damage avoidance pathway function, Phen-parental and Phen-alt-rev together (CDNR4 cells [2]; versus Phen-parental fCE of control cells): 12 fold
